Source: the Deep4Chem optical property database
Each block holds one compound with its values, some of them ahead of it.

Assay: solvent given as SMILES

Compound: CCCCCCC1(CCCCCC)c2cc(-c3ccc(-c4ccc(-c5ccc(-c6ccc7c(c6)C(CCCCCC)(CCCCCC)c6cc(-n8c9ccc(-n%10c%11ccccc%11c%11ccccc%11%10)cc9c9cc(-n%10c%11ccccc%11c%11ccccc%11%10)ccc98)ccc6-7)s5)c5nsnc45)s3)ccc2-c2ccc(-n3c4ccc(-n5c6ccccc6c6ccccc65)cc4c4cc(-n5c6ccccc6c6ccccc65)ccc43)cc21
- absorption maximum (in ClCCl): 514 nm

Compound: CN(C)c1ccc2nc(/C=C/c3ccccc3)c(=O)oc2c1
- absorption maximum (in C1CCCCC1): 438.5 nm
- absorption maximum (in C1COCCO1): 453 nm
- absorption maximum (in CC#N): 463 nm
- absorption maximum (in CC(C)=O): 462 nm
- absorption maximum (in CCCCCCC): 436 nm
- absorption maximum (in CCO): 466 nm
- absorption maximum (in CCOC(C)=O): 457 nm
- absorption maximum (in CN(C)C=O): 469 nm
- absorption maximum (in CS(C)=O): 475 nm
- absorption maximum (in Cc1ccccc1): 459.5 nm
- absorption maximum (in ClC(Cl)Cl): 467 nm
- absorption maximum (in ClCCl): 467.5 nm

Compound: COc1ccc2c3ccc(OC)cc3n(-c3ccc(-c4nnc(-c5c(C)cc(C)cc5C)o4)cc3C)c2c1
- absorption maximum (in Cc1ccccc1): 319 nm

Compound: C(=C\c1cccc2ccccc12)/c1ccc(Oc2ccc3ccccc3c2-c2c(Oc3ccc(/C=C/c4cccc5ccccc45)cc3)ccc3ccccc23)cc1
- absorption maximum (in ClCCl): 334 nm

Compound: O=C(N/N=C/c1ccccc1O)c1cccc2ccccc12
- absorption maximum (in C1CCOC1): 334 nm
- absorption maximum (in CC#N): 332 nm
- absorption maximum (in CC(C)=O): 343 nm
- absorption maximum (in CCO): 400 nm
- absorption maximum (in CN(C)C=O): 395 nm
- absorption maximum (in CS(C)=O): 329 nm
- absorption maximum (in ClCCl): 328 nm

Compound: COc1ccc(-c2nc3c(c4c2-c2ccccc2CC4)-c2ccccc2CC3)cc1
- absorption maximum (in C1CCOC1): 322 nm
- absorption maximum (in CC#N): 321 nm
- absorption maximum (in CCCCCC): 322 nm
- absorption maximum (in CCOC(C)=O): 310 nm
- absorption maximum (in CO): 318 nm
- absorption maximum (in CS(C)=O): 320 nm
- absorption maximum (in Cc1ccccc1): 320 nm
- absorption maximum (in ClCCl): 322 nm

Compound: CC(C)(C)c1ccc2c(c1)c1cc(C(C)(C)C)cc3c1n2B1c2c-3cccc2-c2cc(C(C)(C)C)cc3c4cc(C(C)(C)C)ccc4n1c23
- absorption maximum (in C1CCOC1): 387 nm

Compound: C(=C\c1cc(/C=C/c2ccc(N(c3ccccc3)c3ccccc3)cc2)ncn1)/c1ccc(N(c2ccccc2)c2ccccc2)cc1
- absorption maximum (in ClCCl): 427 nm

Compound: C[n+]1ccc(-c2ccc([O-])cc2)cc1
- absorption maximum (in CC#N): 472 nm
- absorption maximum (in CC(C)=O): 479 nm
- absorption maximum (in CC(C)O): 457 nm
- absorption maximum (in CCC(C)O): 460 nm
- absorption maximum (in CCCO): 441 nm
- absorption maximum (in CO): 418 nm
- absorption maximum (in CS(C)=O): 473 nm
- absorption maximum (in O): 394 nm

Compound: CN(C)c1ccc(C2=[N+]3C(=Nc4c(-c5ccc(OCCCCS(=O)(=O)[O-])cc5)cc(-c5ccc(N(C)C)cc5)n4[B-]3(F)F)C(c3ccc(OCCCCS(=O)(=O)[O-])cc3)=C2)cc1
- absorption maximum (in CS(C)=O): 786 nm

Compound: CCCCCN(c1ccccc1)c1ccc2c(c1)C(CC)(CC)c1cc(/C=C/c3ccc(/C=C(\C#N)C(=O)O)s3)ccc1-2
- absorption maximum (in C1CCOC1): 456 nm
- absorption maximum (in C1COCCO1): 464 nm
- absorption maximum (in CC#N): 430 nm
- absorption maximum (in CC(C)=O): 464 nm
- absorption maximum (in CCOC(C)=O): 460 nm
- absorption maximum (in CN(C)C=O): 418 nm
- absorption maximum (in CS(C)=O): 430 nm
- absorption maximum (in ClCCl): 470 nm

Compound: COc1ccc2c(c1)sc1[n+]2[B-](F)(F)OC(c2ccc(N(C)C)cc2)=N1
- absorption maximum (in C1CCOC1): 430 nm
- absorption maximum (in CC#N): 426 nm
- absorption maximum (in CC(C)=O): 431 nm
- absorption maximum (in Cc1ccccc1): 427 nm
- absorption maximum (in ClCCl): 430 nm

Compound: COc1cc(C2=c3c(c4ccc(C(C)(C)C)cc4c4c(OC)c(OC)c(OC)cc34)=[N+]3C2=Nc2c(-c4cc(OC)c(OC)c(OC)c4)c4c5cc(OC)c(OC)c(OC)c5c5cc(C(C)(C)C)ccc5c4n2[B-]3(F)F)cc(OC)c1OC
- absorption maximum (in Cc1ccccc1): 808 nm

Compound: CCCCCc1ccc(-c2ccc(C#Cc3cc(C#Cc4ccc(-c5ccc(CCCCC)cc5)cc4)c4ccc5c(C(=O)c6ccccc6)cc(C#Cc6ccc(-c7ccc(CCCCC)cc7)cc6)c6ccc3c4c65)cc2)cc1
- absorption maximum (in ClCCl): 466 nm

Compound: O=C(c1ccc(N(c2ccccc2)c2ccccc2)cc1)[C@H]1[C@H](c2cccs2)C[C@](O)(c2ccccn2)C[C@]1(O)c1ccccn1
- absorption maximum (in C1CCOC1): 370 nm
- absorption maximum (in CC#N): 364 nm
- absorption maximum (in CCO): 368 nm
- absorption maximum (in CCOC(C)=O): 366 nm
- absorption maximum (in CN(C)C=O): 358 nm
- absorption maximum (in ClCCl): 374 nm
- absorption maximum (in c1ccccc1): 372 nm

Compound: CC(C)[Si](C#Cc1c2cc3ccccc3cc2c(C#C[Si](C(C)C)(C(C)C)C(C)C)c2cc3ccccc3cc12)(C(C)C)C(C)C
- absorption maximum (in ClCCl): 643 nm

Compound: c1ccc(N2N=C(c3ccc4ccc5cccc6ccc3c4c56)CC2c2ccc3ccc4cccc5ccc2c3c45)cc1 (stereo not given)
- absorption maximum (in ClCCl): 422 nm

Compound: C(=C\c1nc(/C=C/c2ccc(N(c3ccccc3)c3ccccc3)cc2)cc(/C=C/c2ccc(N(c3ccccc3)c3ccccc3)cc2)n1)/c1ccccc1
- absorption maximum (in ClCCl): 430 nm

Compound: N#Cc1cc(-n2c3ccccc3c3ccccc32)nc(-n2c3ccccc3c3ccccc32)n1
- absorption maximum (in Cc1ccccc1): 342 nm

Compound: CCCCN1c2ccccc2Sc2cc(/C=C/C3=Nc4ccc5ccccc5c4C3(C)C)ccc21
- absorption maximum (in C1CCCCC1): 414 nm
- absorption maximum (in C1COCCO1): 417 nm
- absorption maximum (in CCOC(C)=O): 416 nm
- absorption maximum (in CCOCC): 414 nm
- absorption maximum (in Cc1ccccc1): 423 nm

Compound: CN(c1ccccc1)c1ccc(-c2ccc(-c3ccc(N(C)c4ccccc4)cc3)c3nc(-c4ccccc4)c(-c4ccccc4)nc23)cc1
- absorption maximum (in ClC(Cl)Cl): 476 nm

Compound: N#CC(C#N)=Cc1cn(-c2ccccc2)nc1-c1ccccc1
- absorption maximum (in C1CCOC1): 354 nm
- absorption maximum (in C1COCCO1): 353 nm
- absorption maximum (in CCO): 354 nm
- absorption maximum (in CCOC(C)=O): 352 nm
- absorption maximum (in CN(C)C=O): 355 nm
- absorption maximum (in CO): 351 nm
- absorption maximum (in CS(C)=O): 356 nm
- absorption maximum (in Cc1ccccc1): 361 nm
- absorption maximum (in ClC(Cl)Cl): 359 nm
- absorption maximum (in ClCCl): 357 nm

Next, values leading:

- absorption maximum (in C1CCCCC1): 380 nm
- absorption maximum (in CC#N): 383 nm
- absorption maximum (in CCO): 386 nm
- absorption maximum (in ClCCl): 386 nm
Compound: O=P1(c2ccccc2)C2=C(c3ccccc31)S(=O)(=O)c1ccccc12 (stereo not given)

- absorption maximum (in ClCCl): 475 nm
Compound: F[B-]1(F)OC(c2ccccc2)=Cc2cc3[n+](c[n+]21)[B-](F)(F)OC(c1ccccc1)=C3

- absorption maximum (in O): 506 nm
Compound: O=C([O-])COc1cc(NC(=O)c2ccc(-c3c4cc(Cl)c(=O)cc-4oc4cc(O)c(Cl)cc34)c(C(=O)[O-])c2)ccc1N(CC(=O)[O-])CC(=O)[O-]

- absorption maximum (in CC#N): 427 nm
Compound: c1cc2c3c(cccc3c1)C(N1CCOCCOCCOCCOCC1)=N2

- absorption maximum (in CC#N): 448 nm
Compound: Cc1ccc2c(nc3c(=O)n(C)c(=O)nc-3n2C)c1C

- absorption maximum (in C1CCOC1): 412 nm
Compound: CC(C)(C)c1ccc2c(c1)c1ccc3cccc4c5cccc6oc(=O)c2c(c65)c1c34

- absorption maximum (in ClCCl): 625 nm
Compound: c1ccc2c(c1)c1ccc3cccc4c3c1c2c1c2cccc3ccc5c6ccccc6c(c5c32)c41

- absorption maximum (in ClCCl): 373 nm
Compound: C[Si]1(C)O[Si](C)(C)c2cc3nc4ccc(Cl)cc4c(-c4ccccc4)c3cc2[Si](C)(C)O1

- absorption maximum (in ClCCl): 353 nm
Compound: CCOC(=O)c1ccc(C2=Cc3ccccc3P2(=O)c2ccccc2)cc1 (stereo not given)

- absorption maximum (in CC#N): 564 nm
Compound: CCN(CC)c1ccc(/C=N/C(C#N)=C(C#N)\N=C\c2ccc(N(CC)CC)cc2O)c(O)c1

- absorption maximum (in ClCCl): 434 nm
Compound: COc1ccc(N(c2ccc(OC)cc2)c2cc(N(c3ccc(OC)cc3)c3ccc(OC)cc3)c3ccc4cc(C(C)(C)C)cc5ccc2c3c54)cc1

- absorption maximum (in ClCCl): 538 nm
Compound: CCCCCCCCCCCCCCCCCCOC(=O)/C=C/C1=CC2=C(c3c(C)cc(C)cc3C)c3cccn3[B-](F)(F)[N+]2=C1

- absorption maximum (in CCO): 378 nm
Compound: CN(C)c1cc2oc3cc(N(C)C)c(F)cc3c(=O)c2cc1F

- absorption maximum (in CCO): 367 nm
Compound: CCOC(=O)/C=C/c1cc2ccc(O)cc2oc1=O

- absorption maximum (in CC#N): 419 nm
- absorption maximum (in CCCCCC): 408 nm
- absorption maximum (in CS(C)=O): 441 nm
Compound: c1ccc2nc3c(nc2c1)c1c2n3CCCN2CCCC1

- absorption maximum (in ClCCl): 323 nm
Compound: CCOC(=O)c1c(-c2cc3ccccc3oc2=O)nn(-c2ccccc2)c1C(=O)OCC

- absorption maximum (in ClC(Cl)Cl): 740 nm
Compound: COc1ccc2c(c1)CCC1=C(c3ccccc3)C3=Nc4c(-c5ccccc5)c5c(n4[B-](F)(F)[N+]3=C12)-c1ccc(OC)cc1CC5

- absorption maximum (in CC#N): 394 nm
Compound: CCOC(=O)c1c2c3c(ccc([N+](=O)[O-])c3c3cc4ccccc4cc13)N(C)C2=O

- absorption maximum (in ClC(Cl)Cl): 430 nm
Compound: N#Cc1c2oc3ccccc3oc2c(C#N)c2oc3ccccc3oc12

- absorption maximum (in CC#N): 327 nm
Compound: C[C@@]12SC(Cl)=CC1=c1nc(-c3ccc(Cl)cc3)[nH]c1=C1C=C(Cl)S[C@]12C

- absorption maximum (in CC#N): 400 nm
Compound: COc1cc2cc(/C=C/c3ccc(/C=C(\C#N)C(=O)O)cc3)c(=O)oc2cc1OC

- absorption maximum (in CCCCCCC): 400 nm
Compound: c1ccc2cc3c(cc2c1)-c1cccc2c1c-3cc1ccccc12

- absorption maximum (in O): 328 nm
Compound: [NH3+]c1ccc2ccc(O)cc2c1

- absorption maximum (in C1CCOC1): 400 nm
Compound: C(=C\c1c2ccccc2cc2ccccc12)/c1c2ccccc2cc2ccccc12

- absorption maximum (in O): 420 nm
Compound: O=C(O)CCCCCn1c2ccccc2c(=O)c2cc(F)ccc21

- absorption maximum (in CC(C)(C)O): 393 nm
- absorption maximum (in CC(C)CO): 391 nm
- absorption maximum (in CC(C)O): 390 nm
- absorption maximum (in CCCCO): 363 nm
- absorption maximum (in CCCO): 363 nm
- absorption maximum (in CCO): 362 nm
- absorption maximum (in CN(C)C=O): 392 nm
- absorption maximum (in CNC=O): 351 nm
- absorption maximum (in CO): 353 nm
- absorption maximum (in NC=O): 354 nm
- absorption maximum (in O): 391 nm
Compound: COCCOc1cc(C=O)c(OCCOC)cc1C=O

- absorption maximum (in ClCCl): 370 nm
Compound: Cc1ccc(/C=C/c2nc(-c3cccc([N+](=O)[O-])c3)[nH]c2/C=C/c2ccc(C)cc2)cc1

- absorption maximum (in ClCCl): 641 nm
Compound: COC(=O)/C=C/C=C/C1=[N+]2C(=C(c3c(C)cc(C)cc3C)c3ccc(/C=C/C=C/C(=O)OC)n3[B-]2(F)F)C=C1

- absorption maximum (in CS(C)=O): 316 nm
Compound: COc1cc2sc3cc(OC)c(F)cc3c(=O)c2cc1F

- absorption maximum (in CCO): 600 nm
- absorption maximum (in O): 590 nm
Compound: CC/[NH+]=c1\cc2oc3cc(NCCC(=O)NCC(=O)OC)c4ccccc4c3nc-2cc1C

- absorption maximum (in CC#N): 328 nm
Compound: CCCCNc1nn(-c2ccc(OC)cc2)nc1C#N
